Experimental data reported in patent US20030069220A1, “METHOD FOR MASS MEDICATION IN BIOLOGICAL ATTACKS” (priority 2001, published 2003).

Tests used:
[1] = ampicillin dissolved with 95 mole-% sodium carbonate; or aqueous solution of pre-formed salt; cited from earlier work
[2] = Dissolution of antibiotic powders (cephalosporin plus citric acid) in water, Example 1; type: physicochemical
Method: The following antibiotic powders were formed without sweeteners and flavorings by addition to clear plastic bags and by working of the bags. The mixtures were added to water in the amounts noted and the conditions of dissolution are noted, as well as the resultant pH or the formed solution. Although Example 1 describes the use of citric acid, various other constituents may be utilized as a […] (e.g., various amino acids).

[3] = in vivo; cited from earlier work

| SMILES | pH of aqueous solution [1] | pH of the formed solution [2] | time to form a solution [2] | absorbed by the body when ingested [3] [%] |
| --- | --- | --- | --- | --- |
| CC1(C)S[C@@H]2[C@H](NC(=O)[C@H](N)c3ccccc3)C(=O)N2[C@H]1C(=O)[O-].[Na+] [sodium ampicillin] | ~9.5 | – | – | – |
| CC1=C(C(=O)O)N2C(=O)[C@@H](NC(=O)[C@H](N)c3ccccc3)[C@H]2SC1 [Cephalexin, αaminobenzyl-3-desacetoxycephalosporin] | – | pH of 3.3. | solution in 5 minutes | 90 |
| CC1(C)S[C@@H]2[C@H](NC(=O)[C@H](N)c3ccccc3)C(=O)N2[C@H]1C(=O)O [ampicillin] | 8.3 | – | – | – |
